The record followed here is patent US11491157B2, “Cycloalkyl substituted pyrazolopyrimidines having activity against RSV” (priority 2018, dated 2022).

One data set concerns rgRSV224 virus. As to the kind of experiment: Antiviral activity: rgRSV224 (GFP) replication in HeLa cells. Particulars: human respiratory syncytial virus, 72 h, read-out: RSV HELA EC50.
The nature of a further data set: in vitro. Particulars: human.
Data set [1] is described as follows: Cytotoxicity in HeLa cells (ATP content, ATPlite kit). Particulars: human. For orientation: Cellular ATP, detected with luciferase, serves as a proxy for viable cell number.
Experimental: (§1) Black 384-well clear-bottom microtiter plates (Corning, Amsterdam, The Netherlands) were filled via acoustic drop ejection using the echo liquid handler (Labcyte, Sunnyvale, Calif.). 200 nL of compound stock solutions (100% DMSO) were transferred to the assay plates. 9 serial 4-fold dilutions of compound were made, creating per quadrant the same compound concentration. The assay was initiated by adding 10 μL of culture medium to each well (RPMI medium without phenol red, 10% FBS-heat inactivated, 0.04% gentamycin (50 mg/mL). All addition steps are done by using a multidrop dispenser (Thermo Scientific, Erembodegem, Belgium). Next, rgRSV224 virus (MOI=1) diluted in culture medium was added to the plates. rgRSV224 virus is an engineered virus that includes an additional GFP gene (Hallak L K, Spillmann D, Collins P L, Peeples M E. Glycosaminoglycan sulfation requirements for respiratory syncytial virus infection; Journal of virology (2000), 74(22), 10508-13) and was in-licensed from the NIH (Bethesda, Md., USA). Finally, 20 μL of a HeLa cell suspension (3,000 cells/well) were plated. Medium, virus- and mock-infected controls were included in each test. The wells contain 0.05% DMSO per volume. Cells were incubated at 37° C. in a 5% CO2 atmosphere. Three days post-virus exposure, viral replication was quantified by measuring GFP expression in the cells by an in house developed MSM laser microscope (Tibotec, Beerse, Belgium). The EC50 was defined as the 50% inhibitory concentration for GFP expression. In parallel, compounds were incubated for three days in a set of white 384-well microtiter plates (Corning) and the cytotoxicity of compounds in HeLa cells was determined by measuring the ATP content of the cells using the ATPlite kit (Perkin Elmer, Zaventem, Belgium) according to the manufacturer's instructions. The CC50 was defined as the 50% concentration for cytotoxicity.

Experimental for in vitro: as §1
Experimental for rgRSV224 virus: as §1

Turning to `CCS(=O)(=O)NC(=O)[C@H]1C[C@@H]1c1ccc(-c2cc3nc(C(=O)N4CCc5ccccc5[C@H]4C)cc(C4CC4)n3n2)c(F)c1` [Compound 25, (1S,2S)-2-(4-{7-Cyclopropyl-5-[(1R)-1-methyl-1,2,3,4-tetrahydroisoquinoline-2-carbonyl]pyrazolo[1,5-a]pyrimidin-2-yl}-3-fluorophenyl)-N-(ethanesulfonyl)-cyclopropane-1-carboxamide], the melting point (commonly the temperature, or range, at which the solid turns liquid) is 171.93 °C. Besides, the EC50 (in general, the midpoint of the concentration-response curve) with rgRSV224 virus was determined as 34 nM. This compound came in with a CC50 at 3 days in “in vitro” of 51900 nM.

In turn, `CC(C)CS(=O)(=O)NC(=O)[C@H]1C[C@@H]1c1ccc(-c2cc3nc(C(=O)N4CCc5ccccc5[C@H]4C)cc(C4CC4)n3n2)c(F)c1` [Compound 26, (1S,2S)-2-(4-{7-Cyclopropyl-5-[(1R)-1-methyl-1,2,3,4-tetrahydroisoquinoline-2-carbonyl]pyrazolo[1,5-a]pyrimidin-2-yl}-3-fluorophenyl)-N-(2-methylpropanesulfonyl)-cyclopropane-1-carboxamide] returned a melting point of 160.53 °C. The EC50 in the data set with rgRSV224 virus worked out at 138 nM. Further, the CC50 at 3 days in “in vitro” stood at 52100 nM.

In turn, `C[C@@H]1c2ccccc2CCN1C(=O)c1cc(C2CC2)n2nc(-c3ccc([C@H]4C[C@@H]4C(=O)NS(=O)(=O)C4CC4)cc3F)cc2n1` [Compound 27, (1S,2S)—N-(Cyclopropanesulfonyl)-2-(4-{7-cyclopropyl-5-[(1R)-1-methyl-1,2,3,4-tetrahydroisoquinoline-2-carbonyl]pyrazolo[1,5-a]pyrimidin-2-yl}-3-fluorophenyl)-cyclopropane-1-carboxamide] registered a melting point of 177.21 °C. Moreover, the EC50 with rgRSV224 virus amounted to 40 nM. Further, in “in vitro”, the CC50 at 3 days was determined as 55800 nM.

The compound `C[C@@H]1c2ccccc2CCN1C(=O)c1cc(C2CC2)n2nc(-c3ccc([C@H]4C[C@@H]4NC(=O)NC4CC4)cc3F)cc2n1` [Compound 30, 1-Cyclopropyl-3-[(1S,2R)-2-(4-{7-cyclopropyl-5-[(1R)-1-methyl-1,2,3,4-tetrahydro-isoquinoline-2-carbonyl]pyrazolo[1,5-a]pyrimidin-2-yl}-3-fluorophenyl)cyclopropyl]urea] displayed a melting point of 213.73 °C. Moreover, in the data set on rgRSV224 virus, the 50% effective concentration (EC50) amounted to 49 nM. In the data set “in vitro”, the CC50 at 3 days is 40800 nM.

In the case of `CC(=O)N[C@H]1C[C@@H]1c1ccc(-c2cc3nc(C(=O)N4CCc5ccccc5[C@H]4C)cc(C4CC4)n3n2)c(F)c1` [Compound 34, N-[(1S,2R)-2-(4-{7-Cyclopropyl-5-[(1R)-1-methyl-1,2,3,4-tetrahydroisoquinoline-2-carbonyl]pyrazolo[1,5-a]pyrimidin-2-yl}-3-fluorophenyl)cyclopropyl]acetamide], the melting point stood at 232.53 °C. In the data set on rgRSV224 virus, the EC50 was found to be 22 nM. The compound further registered a CC50 at 3 days in the data set “in vitro” of over 100000 nM.

In the case of `C[C@@H]1c2ccccc2CCN1C(=O)c1cc(C2CC2)n2nc(-c3ccc([C@H]4C[C@@H]4NP(C)(C)=O)cc3F)cc2n1` [Compound 37, (1R)-2-(7-Cyclopropyl-2-{4-[(1R,2S)-2-[(dimethylphosphoryl)amino]cyclopropyl]-2-fluorophenyl}pyrazolo[1,5-a]pyrimidine-5-carbonyl)-1-methyl-1,2,3,4-tetrahydroisoquinoline], the 50% effective concentration (EC50) in the data set with rgRSV224 virus was 63 nM. Moreover, the CC50 at 3 days in data set [1] was 41600 nM.

With `C[C@@H]1c2ccccc2CCN1C(=O)c1cc(C2CC2)n2nc(-c3ccc([C@H]4C[C@@H]4OC(N)=O)cc3F)cc2n1` [Compound 39, (1S,2R)-2-(4-{7-Cyclopropyl-5-[(1R)-1-methyl-1,2,3,4-tetrahydroisoquinoline-2-carbonyl]pyrazolo[1,5-a]pyrimidin-2-yl}-3-fluorophenyl)cyclopropyl carbamate], the melting point turned out to be 297.87 °C. The EC50 in the data set with rgRSV224 virus is 82 nM. Also, the CC50 at 3 days in “in vitro” is 12500 nM.

Take `CNC(=O)O[C@H]1C[C@@H]1c1ccc(-c2cc3nc(C(=O)N4CCc5ccccc5[C@H]4C)cc(C4CC4)n3n2)c(F)c1` [Compound 40, (1S,2R)-2-(4-{7-Cyclopropyl-5-[(1R)-1-methyl-1,2,3,4-tetrahydroisoquinoline-2-carbonyl]pyrazolo[1,5-a]pyrimidin-2-yl}-3-fluorophenyl)cyclopropyl N-methylcarbamate]: the melting point was 274.46 °C. Besides, the EC50 in the data set with rgRSV224 virus is 138 nM. In “in vitro”, the CC50 at 3 days was over 100000 nM.

For the compound `C[C@@H]1c2ccccc2CCN1C(=O)c1cc(C2CC2)n2nc(-c3ccc([C@H]4C[C@@H](CO)C4)cc3F)cc2n1` [Compound 42, [cis-3-(4-{7-Cyclopropyl-5-[(1R)-1-methyl-1,2,3,4-tetrahydroisoquinoline-2-carbonyl]-pyrazolo[1,5-a]pyrimidin-2-yl}-3-fluorophenyl)cyclobutyl]methanol], the melting point came to 129.63 °C. Besides, in the data set on rgRSV224 virus, the EC50 was 263 nM. Further, the CC50 at 3 days in “in vitro” was found to be 69200 nM.

Compound `C[C@@H]1c2ccccc2CCN1C(=O)c1cc(C2CC2)n2nc(-c3ccc([C@H]4C[C@@H](COC(N)=O)C4)cc3F)cc2n1` [Compound 44, [cis-3-(4-{7-Cyclopropyl-5-[(1R)-1-methyl-1,2,3,4-tetrahydroisoquinoline-2-carbonyl]pyrazolo[1,5-a]pyrimidin-2-yl}-3-fluorophenyl)cyclobutyl]methyl carbamate] registered a melting point of 300.97 °C. Besides, the EC50 in the data set with rgRSV224 virus turned out to be 332 nM. The CC50 at 3 days in “in vitro” is over 100000 nM.

With `CNC(=O)C[C@H]1C[C@@H](c2ccc(-c3cc4nc(C(=O)N5CCc6ccccc6[C@H]5C)cc(C5CC5)n4n3)c(F)c2)C1` [Compound 48, N-methyl-2-[cis-3-(4-{7-cyclopropyl-5-[(1R)-1-methyl-1,2,3,4-tetrahydroisoquinoline-2-carbonyl]pyrazolo[1,5-a]pyrimidin-2-yl}-3-fluorophenyl)cyclobutyl]acetamide], the melting point amounted to 143.95 °C. The EC50 in the data set with rgRSV224 virus was 151 nM. Moreover, the CC50 at 3 days in the data set “in vitro” came to 23900 nM.
